Patent US6737383B1, “Herbicidal oxadiazolidines” (priority 1999, dated 2004)

How the values were obtained:
blackgrass = experiment: Test B pre/postemergence blackgrass; type: in vivo, Alopecurus myosuroides
In short: (§1)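 Test chemicals in a non-phytotoxic solvent mixture with surfactant were sprayed preemergence onto planted seeds and postemergence onto plants 2 to 18 cm tall (1- to 4-leaf stage). After twelve to sixteen days in a greenhouse, injury was visually rated against untreated controls from 0 (no effect) to 10 (complete control).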

surinam grass = experiment: Test B pre/postemergence surinam grass; type: in vivo, Brachiaria decumbens
In short: as §1

corn = experiment: Test B pre/postemergence corn; type: in vivo, Zea mays
In short: as §1

crabgrass = experiment: Test B pre/postemergence crabgrass; type: in vivo, Digitaria sanguinalis
In short: as §1

giant foxtail = experiment: Test B pre/postemergence giant foxtail; type: in vivo, Setaria faberii
In short: as §1

rape = experiment: Test B pre/postemergence rape; type: in vivo, Brassica napus
In short: as §1

sugar beet = experiment: Test B pre/postemergence sugar beet; type: in vivo, Beta vulgaris
In short: as §1

velvetleaf = experiment: Test B pre/postemergence velvetleaf; type: in vivo, Abutilon theophrasti
In short: as §1

wheat = experiment: Test B pre/postemergence wheat; type: in vivo, Triticum aestivum
In short: as §1

wild oat = experiment: Test B pre/postemergence wild oat; type: in vivo, Avena fatua
In short: as §1

purple nutsedge = experiment: Test B pre/postemergence purple nutsedge; type: in vivo, Cyperus rotundus
In short: as §1

rice = experiment: Test B flood test rice; type: in vivo, Oryza sativa
In short: (§2)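 Read-out is a visual response score from 0 (no effect) to 10 (complete control), assigned by comparison with untreated controls. Treatment was applied at the 2-leaf stage, and plants stayed in the greenhouse for twelve to sixteen days before scoring.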

smallflower flatsedge = experiment: Test B flood test smallflower flatsedge; type: in vivo, Cyperus difformis
In short: as §2

duck salad = experiment: Test B flood test duck salad; type: in vivo, Heteranthera limosa
In short: as §2

bamyardgrass = experiment: Test B flood test barnyardgrass; type: in vivo, Echinochloa crus-galli
In short: as §2

[1] = Postemergence, Rate 250 g/ha, scale 0 to 10
[2] = Postemergence, Rate 500 g/ha, scale of 0 to 10 where 0 is no effect and 10 is complete control
[3] = Postemergence, Rate 1000 g/ha, scale 0 to 10 (0 no effect, 10 complete control)
[4] = Preemergence, Rate 125 g/ha, scale of 0 to 10 where 0 is no effect and 10 is complete control
[5] = Preemergence, Rate 250 g/ha, scale 0 to 10, 0 is no effect, 10 is complete control
[6] = Preemergence, Rate 500 g/ha, scale 0 to 10, 0 is no effect, 10 is complete control
[7] = Rate 125 g/ha, Postemergence, scale 0 to 10, 0 is no effect, 10 is complete control
[8] = Rate 1000 g/ha, Preemergence, scale 0 to 10 (0 no effect, 10 complete control)
[9] = Pre-emergence, Rate 1000 g/ha, scale 0 to 10 (0 no effect, 10 complete control)
[10] = Rate 125 g/ha, under heading Pre-emergence, flood test species, visual evaluation after twelve to sixteen days
[11] = Rate 250 g/ha, Pre-emergence (flood test species), scale 0 to 10, 0 is no effect, 10 is complete control
[12] = Rate 500 g/ha, Pre-emergence, flood test species, scale 0 to 10 (0 no effect, 10 complete control)

## CCOP(=O)(Cn1c(=O)on(C(=O)N(c2ccccc2)C(C)C)c1=O)OCC [Compound 447]
blackgrass; [1]
  Blackgrass plant response rating: 0
blackgrass; [2]
  Blackgrass plant response rating: 2
blackgrass; [3]
  Blackgrass plant response rating: 7
blackgrass; [4]
  Plant response rating, Blackgrass: 0
blackgrass; [5]
  Blackgrass plant response rating: 0
blackgrass; [6]
  Blackgrass plant response rating: 0
blackgrass; [7]
  Blackgrass plant response rating: 0
blackgrass; [8]
  Plant response rating, Blackgrass: 3
Surinam grass; Postemergence, Rate 250 g/ha, scale 0 to 10, 0 no effect, 10 complete control
  B. signalgrass plant response rating: 0
Surinam grass; [2]
  B. signalgrass plant response rating: 0
Surinam grass; [3]
  B. signalgrass plant response rating: 2
Surinam grass; [4]
  Plant response rating, B. signalgrass: 0
Surinam grass; [5]
  B. signalgrass plant response rating: 0
Surinam grass; [6]
  B. signalgrass plant response rating: 0
Surinam grass; [7]
  B. signalgrass plant response rating: 0
Surinam grass; [8]
  Plant response rating, B. signalgrass: 6
corn; [1]
  Corn plant response rating: 0
corn; [2]
  Corn plant response rating: 0
corn; [3]
  Corn plant response rating: 0
corn; [4]
  Plant response rating, Corn: 0
corn; [5]
  Corn plant response rating: 0
corn; [6]
  Corn plant response rating: 0
corn; [7]
  Corn plant response rating: 0
corn; [8]
  Plant response rating, Corn: 0
crabgrass; [1]
  Crabgrass plant response rating: 0
crabgrass; [2]
  Crabgrass plant response rating: 0
crabgrass; [3]
  Crabgrass plant response rating: 0
crabgrass; [4]
  Plant response rating, Crabgrass: 3
crabgrass; [5]
  Crabgrass plant response rating: 8
crabgrass; [6]
  Crabgrass plant response rating: 9
crabgrass; [7]
  Crabgrass plant response rating: 0
crabgrass; [8]
  Plant response rating, Crabgrass: 9
Giant foxtail; [1]
  Giant foxtail plant response rating: 0
Giant foxtail; [2]
  Giant foxtail plant response rating: 0
Giant foxtail; [3]
  Giant foxtail plant response rating: 0
Giant foxtail; [4]
  Plant response rating, Giant foxtail: 3
Giant foxtail; [5]
  Giant foxtail plant response rating: 7
Giant foxtail; [6]
  Giant foxtail plant response rating: 8
Giant foxtail; [7]
  Giant foxtail plant response rating: 0
Giant foxtail; [8]
  Plant response rating, Giant foxtail: 10
rape; [1]
  Rape plant response rating: 0
rape; [2]
  Rape plant response rating: 0
rape; [3]
  Rape plant response rating: 0
rape; [4]
  Plant response rating, Rape: 0
rape; [5]
  Rape plant response rating: 0
rape; [6]
  Rape plant response rating: 0
rape; [7]
  Rape plant response rating: 0
rape; [8]
  Plant response rating, Rape: 0
Sugar beet; [1]
  Sugarbeets plant response rating: 0
Sugar beet; [2]
  Sugarbeets plant response rating: 0
Sugar beet; [3]
  Sugarbeets plant response rating: 0
Sugar beet; [4]
  Plant response rating, Sugarbeets: 0
Sugar beet; [5]
  Sugarbeets plant response rating: 0
Sugar beet; [6]
  Sugarbeets plant response rating: 0
Sugar beet; [7]
  Sugarbeets plant response rating: 0
Sugar beet; [8]
  Plant response rating, Sugarbeets: 0
velvetleaf; [1]
  Velvetleaf plant response rating: 0
velvetleaf; [2]
  Velvetleaf plant response rating: 0
velvetleaf; [3]
  Velvetleaf plant response rating: 0
velvetleaf; [4]
  Plant response rating, Velvetleaf: 0
velvetleaf; [5]
  Velvetleaf plant response rating: 0
velvetleaf; [6]
  Velvetleaf plant response rating: 0
velvetleaf; [7]
  Velvetleaf plant response rating: 0
velvetleaf; [8]
  Plant response rating, Velvetleaf: 0
wheat; [1]
  Wheat plant response rating: 0
wheat; [2]
  Wheat plant response rating: 0
wheat; [3]
  Wheat plant response rating: 0
wheat; [4]
  Plant response rating, Wheat: 0
wheat; [5]
  Wheat plant response rating: 0
wheat; [6]
  Wheat plant response rating: 0
wheat; [7]
  Wheat plant response rating: 0
wheat; [8]
  Plant response rating, Wheat: 0
Wild oat; [1]
  Wild oats plant response rating: 0
Wild oat; [2]
  Wild oats plant response rating: 0
Wild oat; [3]
  Wild oats plant response rating: 0
Wild oat; [4]
  Plant response rating, Wild oats: 0
Wild oat; [5]
  Wild oats plant response rating: 2
Wild oat; [6]
  Wild oats plant response rating: 7
Wild oat; [7]
  Wild oats plant response rating: 0
Wild oat; [8]
  Plant response rating, Wild oats: 10
Purple nutsedge; [1]
  Nutsedge plant response rating: 0
Purple nutsedge; [2]
  Nutsedge plant response rating: 0
Purple nutsedge; [3]
  Nutsedge plant response rating: 0
Purple nutsedge; [4]
  Plant response rating, Nutsedge: 0
Purple nutsedge; [5]
  Nutsedge plant response rating: 0
Purple nutsedge; [6]
  Nutsedge plant response rating: 0
Purple nutsedge; [7]
  Nutsedge plant response rating: 0
Purple nutsedge; [8]
  Plant response rating, Nutsedge: 0
rice; [9]
  Rice plant response rating: 0
rice; [10]
  Rice plant response rating (0 to 10 scale, 0 is no effect, 10 is complete control): 0
rice; [11]
  Rice plant response rating: 0
rice; [12]
  Rice plant response rating: 0
Smallflower flatsedge; [9]
  S. Flatsedge plant response rating: 0
Smallflower flatsedge; [10]
  S. Flatsedge plant response rating (0 to 10 scale, 0 is no effect, 10 is complete control): 0
Smallflower flatsedge; [11]
  S. Flatsedge plant response rating: 0
Smallflower flatsedge; [12]
  S. Flatsedge plant response rating: 0
Duck salad; [9]
  Ducksalad plant response rating: 0
Duck salad; [10]
  Ducksalad plant response rating (0 to 10 scale, 0 is no effect, 10 is complete control): 0
Duck salad; [11]
  Ducksalad plant response rating: 0
Duck salad; [12]
  Ducksalad plant response rating: 0
bamyardgrass; [9]
  Barnyardgrass plant response rating: 0
bamyardgrass; [10]
  Barnyardgrass plant response rating (0 to 10 scale, 0 is no effect, 10 is complete control): 0
bamyardgrass; [11]
  Barnyardgrass plant response rating: 0
bamyardgrass; [12]
  Barnyardgrass plant response rating: 0
